Test results taken from publication PMC4188808 (Neuropharmacology, 2014).

Key:
[1] = tested on: N-methyl-D-aspartate receptor (NMDAR); set-up: species or system Rattus norvegicus
[2] = molecular target: NMDAR expressing GluN2B (NR2B) subunits (Rattus norvegicus, UniProt P35439+Q00960); format: cell-based
Sequence of NMDAR expressing GluN2B (NR2B) subunits (Q00960 27-1482, other chains not shown): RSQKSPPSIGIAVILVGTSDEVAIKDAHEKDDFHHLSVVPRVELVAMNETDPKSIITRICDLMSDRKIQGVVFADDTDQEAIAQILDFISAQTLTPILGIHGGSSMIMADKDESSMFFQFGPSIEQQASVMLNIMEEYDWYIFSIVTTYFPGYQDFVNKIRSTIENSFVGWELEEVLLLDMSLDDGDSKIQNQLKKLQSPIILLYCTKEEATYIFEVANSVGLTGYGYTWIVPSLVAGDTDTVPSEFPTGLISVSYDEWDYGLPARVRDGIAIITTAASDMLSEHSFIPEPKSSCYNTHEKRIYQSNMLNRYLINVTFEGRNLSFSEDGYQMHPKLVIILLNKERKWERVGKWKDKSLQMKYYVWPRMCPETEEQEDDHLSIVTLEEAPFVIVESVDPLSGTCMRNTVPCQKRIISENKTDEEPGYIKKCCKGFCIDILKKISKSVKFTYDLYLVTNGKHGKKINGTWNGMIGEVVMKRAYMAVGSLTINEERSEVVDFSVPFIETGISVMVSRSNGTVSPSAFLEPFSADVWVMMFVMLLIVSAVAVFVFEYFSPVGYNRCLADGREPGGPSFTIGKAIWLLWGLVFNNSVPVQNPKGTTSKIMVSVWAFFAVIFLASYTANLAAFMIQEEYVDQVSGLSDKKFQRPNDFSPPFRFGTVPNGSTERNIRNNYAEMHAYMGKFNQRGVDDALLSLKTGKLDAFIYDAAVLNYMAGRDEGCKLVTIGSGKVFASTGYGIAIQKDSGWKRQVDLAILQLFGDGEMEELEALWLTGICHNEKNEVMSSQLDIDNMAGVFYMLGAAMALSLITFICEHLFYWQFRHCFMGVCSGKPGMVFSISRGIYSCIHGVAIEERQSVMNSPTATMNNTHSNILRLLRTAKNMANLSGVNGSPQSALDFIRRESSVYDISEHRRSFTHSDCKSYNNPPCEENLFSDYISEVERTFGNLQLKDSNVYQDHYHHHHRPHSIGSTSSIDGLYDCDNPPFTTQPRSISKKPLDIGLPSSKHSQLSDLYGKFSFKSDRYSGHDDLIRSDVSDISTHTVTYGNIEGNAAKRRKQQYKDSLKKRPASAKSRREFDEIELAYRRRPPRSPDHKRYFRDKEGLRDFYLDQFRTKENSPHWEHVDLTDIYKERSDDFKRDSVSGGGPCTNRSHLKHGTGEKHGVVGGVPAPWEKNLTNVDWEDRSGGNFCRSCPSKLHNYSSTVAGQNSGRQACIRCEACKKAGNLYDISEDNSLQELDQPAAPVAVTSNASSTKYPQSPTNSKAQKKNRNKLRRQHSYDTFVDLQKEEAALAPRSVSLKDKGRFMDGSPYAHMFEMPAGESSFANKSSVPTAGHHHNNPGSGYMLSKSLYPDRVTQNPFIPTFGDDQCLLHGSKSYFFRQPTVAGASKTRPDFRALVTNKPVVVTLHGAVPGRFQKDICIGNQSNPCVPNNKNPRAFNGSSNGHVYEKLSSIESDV

## CNC1(c2ccccc2Cl)CCCCC1=O (racemic) [ketamine]
[1]
  EC50: ~10 µM

## CC(C(O)c1ccc(O)cc1)N1CCC(Cc2ccccc2)CC1 (centres unmarked) [ifenprodil]
[2]
  % inhibition at 10 μM: 43.4 ± 7.3
